Measurements taken from patent US20250352518A1, “A BENZIMIDAZOLE COMPOUND WITH ANTIHELMINTHIC ACTIVITY FOR USE IN REVERSING, ARRESTING OR SLOWING DOWN CELLULAR AGEING IN A VERTEBRATE SUBJECT” (RAVAN BIO LIMITED, priority 2022, published 2025).

Assays:
[1] = Canine case studies: age-related pathologies and tumour observations; assay type: in vivo, dog
Procedure: In 2017, a […] (D.O.B Jan. 5, 2008) female Lhasa Apso/Jack Russell/Shih Tzu cross-breed (confirmed by genetic breed analysis: DNA-My-Dog) with a body mass of 9 Kg, was treated with 0.6 gm/day of 22.2% Fenbendazole (Panacur® granules) which was given orally for 3 consecutive days/week for 1 month and this cycle was repeated every 3rd month giving 4 cycles/annum providing a total of 16×1 month treatment cycles spread over a period of 4 yrs up to the present day.
In 2017, a 4 yr old Jack Russell/Poodle/Maltese cross-breed (Confirmed by genetic breed analysis: DNA-My-Dog) with a body mass of 9.2 Kg was treated with 1.0 gm/day of 22.2% Fenbendazole Panacur® granules for 3 days per week and 4 days without. The dosing schedule of 3 days with, 4 days without treatment per week was continued for 3 months after which the dose was reduced to 0.6 gm/day of Panacur® and treatment alternated between 1 month with and 1 month without for 19 months providing a total of 11×1 month treatment cycles over the whole time period. After this, treatment was discontinued for 2 years and 5 months up to 12 May 2022 when a cheek swab was taken for analysis of biological age and this was repeated 5 months later on the 30 Sep. 2022.
The initial reason for treating this animal was that it had been diagnosed with an anal sac adenocarcinoma and, at the time, it was decided to explore the use of Fenbendazole as an alternative treatment. […] Subject C2B's birth date was May 2014 giving a chronological age of 8 yrs which was verified by microchip implantation date using the Petlog database. Following the outlined treatment with Fenbendazole, in April 2022, a cheek epithelium swab was sent to DNA-My-Dog for assessment of breed composition and biological age by analysis of breed-specific telomere length. The result, returned on the 12 May 2022, reported a biological age of 1 yr old indicating a reduction in biological age of 7 yrs. which is equivalent to ˜90% reduction in biological age. […] After a further gap of 5 months without treatment, on the 30 Sep. […] However, unlike subject C2A, no treatment was given during this period so the most likely explanation is that the efficacy time-limit of the initial treatment has been exceeded.

[2] = system: NHEK cells; assay: Population doublings and telomere loss per population doubling of drug-treated NHEK's (qPCR); assay type: cell-based, human; conditions: passage 10 and 11 NHEK's, versus DMSO control, FIG. 8b
Procedure: Sub-confluent passage 2 NHEK's in T75 flasks were cultured in complete KSFM maintained at 5% CO2, 37° C. until ˜80% confluent as described in 1.5. These were subsequently passaged and accurate cell counts determined by Via-1 cassette NC3000 Image Cell Cytometer. An aliquot of 40,000 cells was then seeded into T25 flasks which were incubated for 24 hours in KKSFM at 5% CO2, 37° C. to allow cells to adhere. […] These cultures were then incubated for another 3 days at 5% CO2, 37° C. when confluency was approx 80%. At this point, cells were harvested, Via-1 counts carried out, 50,000 cells pelleted for DNA preparation (DNeasy® Blood & Tissue Kit, Qiagen UK, Cat No 69505) and 40,000 cells seeded into a fresh T-25 flask for each specific drug treatment. The whole procedure was then repeated 8 times until passage 11. Extracted DNA quality and quantity was determined with a QuickDrop DNA Spectrophotometer (Molecular Devices. Model 504 7178) and then this was used to analyse comparative telomere length in each sample by use of a Relative Human Telomerase Length Quantification qPCR Assay Kit (ScienCell™, Cat No 8908) with a Stratagen qPCR/Real Time PCR Machine. Model Mx3005P®. […] Analysis of relative telomere length was carried out on DNA extracted from passages 3-10 in triplicate using a qPCR Assay Kit (ScienCell™, Cat No 8908), according to the manufacturer's instructions.

[3] = system: post-confluent NHEK cells; assay: Growth of re-cultured post-confluent (cell-cell contact growth arrested) NHEK's; assay type: cell-based, human; conditions: for concentration causing optimal cell growth: post-confluent NHEK
Description: Neonatal human epidermal foreskin keratinocytes (NHEKs) were used to test the ability of compounds to reverse, arrest or slow down cellular ageing. These cells typically undergo approximately 35 cell divisions before the Hayflick limit is reached but they can be induced to undergo premature senescence and, what has been understood to be, irreversible growth arrest earlier than this by induction of cell-cell contact growth inhibition when cultured at high cell density/to confluence (Poumay & Pittelkow 1995 J Inv Dermatol 104, p 271-276). The inventors were thus inspired to culture post-confluent cells and assess the effect of test compounds on the growth, telomere loss and secretion of inflammatory factors by such cells. An experimental schematic is provided as FIG. 1. 1.1 Culture of Early Passage NHEK's in the Presence and Absence of y27632 Pooled donor neonatal NHEK's (Cat No C-12005, Lot No 456Z001.1, PromoCell GmBH), serum-free PromoCell Keratinocyte Growth Medium 2 (KSFM, Cat No C20011. Lot No 472M197), CaCl2) (Lot No 471055) and Supplements (Lot No 472M013) were all obtained from PromoCell GmBH. NHEK's were thawed directly into a single T75 in 20 mls of complete KSFM (CaCl2 & Supplements), incubated over night at 37° C., 5% CO2 and the medium changed the following day. After 3 days the cells were 80% confluent and were passaged (Ist) using 0.05% Trypsin+EDTA (Gibco) into ×2 T75 flasks at a split ratio of 1:4. After overnight incubation at 37° C., 5% CO2, the cultures were at 30% confluence and 10 μM Y27632 (Cat No 688000, Lot No 2884132, Merck) was added to one of the flasks. […] Fresh T75 flasks were seeded with 5.0×10^5 cells from each in their respective medium. […] Fresh T75 flasks were seeded, as described previously, and also 1.2×10^4 NHEK cells/well were seeded into 24 well plates, incubated overnight to allow cell attachment, and the following subsequently added to separate wells: • A. NHEK in complete KSFM • B. NHEK+Y27632 in complete KSFM • C. Y27632 treated NHEK transferred to complete KSFM (Y27632 Removed) • D. NHEK transferred to complete KSFM+500 nM Tadalafil • E. NHEK transferred to complete KSFM+750 nM Tadalafil • F. NHEK transferred to complete KSFM+1000 nM Tadalafil • G. NHEK transferred to complete KSFM+1250 nM Tadalafil • H. NHEK transferred to complete KSFM+50 nM Fenbendazole • I. NHEK transferred to complete KSFM+100 nM Fenbendazole • J. NHEK transferred to complete KSFM+150 nM Fenbendazole • K. NHEK transferred to complete KSFM+200 nM Fenbendazole All drugs were added 24 hours after seeding. […] FIG. 2B is an example of the appearance of post-confluent cells.
Post-confluent NHEK's (FIG. 2B) were subsequently passaged (4th) into a fresh 24 well plate using a split ratio of 1 in 4 in 2 mls of fresh complete KSFM. These were left overnight to attach and the same compounds added (as shown in A-K of 1.1) followed by incubation for a further 24 hours and subsequently photographed.

[4] = system: post-confluent NHEK cells; assay: as above; assay type: cell-based, human

COC(=O)Nc1nc2ccc(Sc3ccccc3)cc2[nH]1 [Fenbendazole, methyl 5-(phenylthio)-2-benzimidazole carbamate]
body weight and physical activity ([1]; dog C2A, during 4 yr treatment): significant weight-loss and increased physical activity | growth of teeth ([1]; dog C2A, during 4 yr treatment): activation of new growth of teeth | skin conditions / subcutaneous lesions ([1]; dog C2A, during 4 yr treatment): normalization of skin and regression of subcutaneous lipoma like lesions | persistence of anti-ageing effects after treatment is discontinued ([1]; dog C2B): at least 2 years | visible signs of ageing ([1]; dog C2B): does not show any visible signs of ageing | anal sac adenocarcinoma tumour ([1]; dog C2B, during treatment): regressed | relative telomere loss per population doubling [2]: greatest reduction | continued growth of post-confluent NHEK's (phase contrast) ([3]; passage 4, 24 hours with compound, 10 μM Y27632, 500-1250 nM Tadalafil, 50-200 nM Fenbendazole, FIG. 3): all exhibited cell growth | concentration causing optimal cell growth ([3]; cultured for a further 24 hrs, FIG. 4): 100 to 150 nM | concentration causing optimal cell growth ([3]; passage 4, 24 hours, FIG. 3): 100 to 150 nM | number of viable cells (Via-1 Assay) following withdrawal of drug ([4]; treatment P3-P5 only, withdrawn following passage 6, 5 days, FIG. 5): 9.7×10^4 cells/ml | number of viable cells (Via-1 Assay) ([4]; treatment continued for passages P3-P6, 5 days after passage 6, FIG. 5): 9.5×10^4 cells/ml
